In test [1] the test system is pancreatic islet cells from newborn rats. Briefly: Beta cell proliferation in vitro (BrdU incorporation into DNA in insulin-positive cells). In kind it is cell-based. The method, then: In our efforts to identify beta cell growth factors we discovered that GLP-1 indeed could stimulate beta cell proliferation in vitro. The proliferation was measured as incorporation of the thymidine analogue 5-bromo-2-deoxyuridine (BrdU) into DNA in insulin-positive cells in pancreatic islet cells from newborn rats.
A general note: Uptake of a labelled nucleoside into DNA is a usual measure of proliferation.

The subject of test [2] is remnant and regenerated pancreatic tissue (beta cells). Kind of test: Pancreatic tissue regeneration, BrdU and insulin immunohistochemistry after 60% pancreatectomy. In kind it is in vivo, Sprague-Dawley rats. More on the design: key to Amount of regenerated tissue: The amount of regenerated tissue was scored on the following range: −, (+), +, ++, +++; The amount of regenerated tissue was scored on the following range: −, (+), +, ++, +++; The amount of regenerated tissue was scored on the following range: −, (+), +, ++, +++; The amount of regenerated tissue was scored on the following range: −, (+), +, ++, +++; The amount of regenerated tissue was scored on the following range: −, (+), +, ++, +++. To be noted: 20 mg/kg p.o. x2, day 4 to 8. The method, then: A 60% pancreatectomy was performed on a total of 12 male Sprague-Dawley rats. Vehicle and the DPP-IV inhibitor Val-Pyr was administered to 6 of these from day 4 to 8 in a dose of 20 mg/kg p.o. x2, while the remaining 6 rats were treated with vehicle alone.
The proliferation of beta cells was measured as incorporation of the thymidine analogue 5-bromo-2-deoxyuridine (BrdU) into DNA in insulin-positive cells. 8 days after the 60% pancreatectomy, 100 mg/kg BrdU was administered i.p. and 4 hours later the area containing remnant and regenerated pancreatic tissue was removed and processed for immunohistochemistry. Three adjacent sections from each animal were stained for insulin and BrdU. The amount of regenerated tissue was scored on the following range: −, (+), +, ++, +++. The location of BrDU was examined in regenerated pancreatic (reg) and exocrine (ex) tissue. Insulin staining was scored as weak (W), normal (N), and in regenerated tissue (+R).

Test [3] can be described thus: Oral Glucose Tolerance Test (OGTT) at day 8 in 60% pancreatectomized rats. It counts as in vivo, Sprague-Dawley rats. To be noted: 20 mg/kg p.o. x2, day 4 to 8.

Where “and” joins values, the source holds several entries; their conditions need not be identical. Equal values may be shown once. Ends that are not written are not given here.

Turning to “GLP-1: insulinotropic hormone Glucagon like peptide-1 (HAEGTFTSDVSSYLEGQAAKEFIAWLVKGR; ends and bridges not checked; UniProt P01275 98-127, looked up)”, the “Number of labelled (BrdU) beta cells” value in test [1] is on record as “increase the number of labelled beta cells”.
On to `CC(C)[C@H](N)C(=O)N1CCCC1` [Val-Pyr], for which the “Animals with insulin expressed in islets located in the regenerating pancreatic tissue” value in test [2] (vehicle alone 1 out of 6) is 5 out of 6. Moreover, the “Amount of regenerated tissue” value in test [2] (per animal, tissue removed 8 days after 60% pancreatectomy, 20 mg/kg) is “+ (5×) and ++”. Also, the “Glucose excursion AUC after OGTT” value in test [3] is ~50 % of vehicle.

The values are drawn from patent publication US7064145B2, “Inhibition of beta cell degeneration” (Novo Nordisk A/S, priority 2000, dated 2006).
